Legend:
K. pneumoniae ST258 [1] = test: Screening of peptidomimetic-antibiotic combinations (growth / growth inhibition); format: cell-based, Klebsiella pneumoniae; design: key to Growth in combination with RIF / Growth in combination with AZM: Growth (+); growth inhibition (–)
[2] = MTS/PMS cell viability assay; format: cell-based; details: human, HepG2 hepatocytes, 1 h exposure, read-out: Cytotoxicity HepG2 EC50 ± SD
Summary of the method: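 NIH 3T3 and HepG2 cells at 80–90% confluence exposed 1 h to compound in serum-free medium, then MTS/PMS added for 1 h at 37 °C; absorbance read at 492 nm. Viability normalized to medium (0% death) and 0.2% SDS (100% death); EC50 from Hill fit constrained 0–100%, technical triplicates.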

P. aeruginosa ATCC 27853 = test: MIC by broth microdilution; format: cell-based, Pseudomonas aeruginosa; details: peptidomimetic alone
Summary of the method: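 Potentiation is scored as MIC of standard antibiotics in prepared dilution plates with peptidomimetic present, added just prior to pathogen inoculation. MICs are read by CLSI broth microdilution.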

[3] = system: K. pneumoniae clinical isolates and reference strains; test: MIC of fixed-ratio peptidomimetic 1-antibiotic combinations in clinical isolates and reference strains; format: cell-based, Klebsiella pneumoniae; details: with rifampicin or azithromycin
Text: (§1) Bacterial strains used in this study comprise MDR clinical isolates of E. coli ST131 (Cerquetti et al., [2010]) and K. pneumoniae ST258 (Jana et al., [2017]), and American type culture collection (ATCC) strains: ATCC 25922 (E. coli), ATCC 13883 (K. pneumoniae), and ATCC 27853 (P. aeruginosa). Additional clinical isolates of E. coli, K. pneumoniae, and P. aeruginosa resistant to β-lactams (including carbapenems and cephalosporins) were provided by Laurent Poirel, Université de Fribourg, Switzerland. The following growth media was routinely used for bacterial culturing: Luria-Burtani (LB), cation-adjusted Mueller-Hinton agar (MHA) and broth (MHB II). All assays were performed in cation-adjusted MHA or MHB II. […]
Minimal inhibitory concentrations (MICs) of peptidomimetics, antibiotics and their combinations were determined by broth microdilution according to the Clinical Laboratory Standards Institute performance standards (Clinical and Laboratory Standards Institute, [2013]). […] Potentiation of additional antibiotics by peptidomimetics was determined by using commercial 96-well plates containing varied concentrations of standard antibiotics (COMPAN1F; Trek Diagnostic Systems Inc.). The peptidomimetics were added immediately prior to inoculation with pathogen, and then MICs were determined as above. […] Minimal bactericidal concentrations (MBCs) were determined by using growth-curve assay plates. […]

[4] = system: P. aeruginosa clinical isolates and reference strains; test: as above; format: cell-based, Pseudomonas aeruginosa; details: with rifampicin or azithromycin
Text: as §1, with “II. Antibiotics were purchased from Sigma-Aldrich and the peptidomimetic collection (Table S1) was curated and provided by Henrik Franzyk.” for “II.”
Minimal inhibitory concentrations (MICs) of peptidomimetics, antibiotics and their combinations were determined by broth microdilution according to the Clinical Laboratory Standards Institute performance standards (Clinical and Laboratory Standards Institute, [2013]). […] Potentiation of additional antibiotics by peptidomimetics was determined by using commercial 96-well plates containing varied concentrations of standard antibiotics (COMPAN1F; Trek Diagnostic Systems Inc.). The peptidomimetics were added immediately prior to inoculation with pathogen, and then MICs were determined as above. The MICs of peptidomimetic/antibiotic combinations were determined according to the method above, and the concentration ratios were selected based upon checkerboard results with 2:1 and 1:4 ratio of peptidomimetic with rifampicin or azithromycin, respectively. Minimal bactericidal concentrations (MBCs) were determined by using growth-curve assay plates. […] Growth was recorded at 10 min intervals as optical density (OD) at 600 nm during 24 h. […]

E. coli ST131 = details: ST131, 24 h
Protocol: (§2) Minimal inhibitory concentrations (MICs) of peptidomimetics, antibiotics and their combinations were determined by broth microdilution according to the Clinical Laboratory Standards Institute performance standards (Clinical and Laboratory Standards Institute, [2013]). […] Since rifampicin and azithromycin mainly are used to treat infections with Gram-positive pathogens only CLSI clinical breakpoints were available for such bacteria. […] Potentiation of additional antibiotics by peptidomimetics was determined by using commercial 96-well plates containing varied concentrations of standard antibiotics (COMPAN1F; Trek Diagnostic Systems Inc.). The peptidomimetics were added immediately prior to inoculation with pathogen, and then MICs were determined as above. The MICs of peptidomimetic/antibiotic combinations were determined according to the method above, and the concentration ratios were selected based upon checkerboard results with 2:1 and 1:4 ratio of peptidomimetic with rifampicin or azithromycin, respectively. Minimal bactericidal concentrations (MBCs) were determined by using growth-curve assay plates. MIC plates were prepared as above, and then the plates were incubated at 37°C with continuous shaking. Growth was recorded at 10 min intervals as optical density (OD) at 600 nm during 24 h. At 24 h, for wells without growth, a sample was diluted 10-fold in sterile saline (0.9% sodium chloride) and plated onto MHA, following CLSI guidelines (Clinical and Laboratory Standards Institute, [1999]).

K. pneumoniae ST258 [5] = details: ST258, 24 h
Protocol: as §2

P. aeruginosa ATTC 27853 = details: ATTC 27853, 24 h
Protocol: as §2

SMILES: NCCCC[C@H](NC(=O)CCN(Cc1ccccc1)C(=O)[C@H](CCCCN)NC(=O)CCN(Cc1ccccc1)C(=O)[C@H](CCCCN)NC(=O)CCN(Cc1ccccc1)C(=O)[C@H](CCCCN)NC(=O)CCN(Cc1ccccc1)C(=O)[C@H](CCCCN)NC(=O)CCN(Cc1ccccc1)C(=O)[C@H](CCCCN)NC(=O)CCN(Cc1ccccc1)C(=O)[C@H](CCCCN)NC(=O)CCN(Cc1ccccc1)C(=O)[C@@H](N)CCCCN)C(=O)N(CCC(N)=O)Cc1ccccc1 [Peptidomimetic 1, H-(Lys-βNPhe)8-NH2]
- Screening result with rifampicin (K. pneumoniae ST258 [1]; 0.5 μM peptidomimetic + 0.5 μg/mL rifampicin): inhibit growth
- Screening result with azithromycin (K. pneumoniae ST258 [1]; 0.5 μM peptidomimetic + 1 μg/mL azithromycin): prevented growth
- Growth in combination with AZM (K. pneumoniae ST258 [1]; peptidomimetic 0.5 μM + azithromycin 1 μg/mL): –
- Growth in combination with RIF (K. pneumoniae ST258 [1]; peptidomimetic 0.5 μM + rifampicin 0.5 μg/mL): –
- EC50 at 1 h [2]: 124 ± 0.81 µM
- MIC P. aeruginosa ATCC 27853 (P. aeruginosa ATCC 27853): 1 µM
- Peptidomimetic concentration required to induce susceptibility, three K. pneumoniae isolates [3]: 2 to 8 µM
- Peptidomimetic concentration typically required, P. aeruginosa isolates [4]: 1 to 8 µM
- MBC (peptidomimetic alone) (E. coli ST131): 1 µM
- MIC (peptidomimetic alone) (E. coli ST131): 1 µM
- MBC (peptidomimetic alone) (K. pneumoniae ST258 [5]): 16 to 32 µM
- MIC (peptidomimetic alone) (K. pneumoniae ST258 [5]): 8 µM
- MBC (peptidomimetic alone) (P. aeruginosa ATTC 27853): 2 µM
- MIC (peptidomimetic alone) (P. aeruginosa ATTC 27853): 1 µM

Source: paper PMC6615261, “Repurposing Azithromycin and Rifampicin Against Gram-Negative Pathogens by Combination With Peptidomimetics” (Frontiers in Cellular and Infection Microbiology, 2019)
